According to ChEMBL document CHEMBL1148862, “Evaluation of the anti-hepatitis C virus effect of novel potent, selective, and orally bioavailable JNK and VEGFR kinase inhibitors” (Bioorg Med Chem Lett, 2007):
pEC50: −log10 of the molar value.

Columns and labels:
[1] = Cytotoxicity against MT4 cells by luciferase assay; type: cell-based; settings: human
Hepatitis C virus = assay: Antiviral activity against HCV in Huh7-Rep cells by luciferase assay; type: functional, organism-based, Hepacivirus hominis
[2] = Cytotoxicity against Huh7 cells by luciferase assay; type: cell-based, Huh-7; settings: human

Cc1cnccc1Nc1nc(-c2cc(Cl)ccc2F)nc2nccnc12
CC50 [1]: > 32 µM | pEC50 (Hepatitis C virus): 5.70 | CC50 [2]: > 32 µM

Clc1cccc(-c2nc(Nc3ccncc3)c3nccnc3n2)c1
CC50 [1]: > 32 µM | pEC50 (Hepatitis C virus): 5.78 | CC50 [2]: > 32 µM

Cc1ccccc1Nc1nc(-c2cc(Br)ccc2F)nc2nccnc12
CC50 [1]: > 32 µM | pEC50 (Hepatitis C virus): 5.19 | CC50 [2]: > 32 µM

Fc1ccc(Br)cc1-c1nc(N(CCc2ccccc2)c2ccncc2)c2nccnc2n1
CC50 [1]: 11 µM | pEC50 (Hepatitis C virus): 5.71 | CC50 [2]: 22.2 µM

CN(c1ccccc1)c1nc(-c2cc(Br)ccc2F)nc2nccnc12
CC50 [1]: > 32 µM | pEC50 (Hepatitis C virus): 5.70 | CC50 [2]: > 32 µM

COc1cnc(-c2cc(Cl)ccc2F)nc1Nc1ccncc1C(=O)NCC(F)(F)F
CC50 [1]: > 32 µM | pEC50 (Hepatitis C virus): 5.92 | CC50 [2]: > 32 µM

Oc1nc(-c2cc(Cl)ccc2F)nc2nccnc12
CC50 [1]: > 25 µM | pEC50 (Hepatitis C virus): < 4.30 | CC50 [2]: > 25 µM

COc1cnc(-c2cc(Cl)ccc2F)nc1Nc1ccncc1C(=O)NCCCN1CCOCC1
CC50 [1]: 15.4 µM | pEC50 (Hepatitis C virus): 5.60 | CC50 [2]: 17.1 µM
